In data set [1] the target is T1, αvβ3 integrin (Homo sapiens, UniProt P05106+P06756).
T1 construct: endogenous in cells; host or cells: M21 human melanoma cells
Put plainly: In vitro binding assay: displacement of 125I-echistatin on M21 human melanoma cells. For orientation: In a radioligand displacement assay an active substance lowers the binding of a labelled ligand.

[2] abbreviates: M21 cells, 125I-echistatin, 2 h room temperature, read-out: IC50.

Read-outs that look alike come from different tables or passages of the source.

A word on the IC50: it is the concentration that gives 50% inhibition. A word on the logP: it is a log measure of how a compound divides between an organic and an aqueous phase. A lower logP goes with a more hydrophilic compound.

T1 sequence (P06756 31-889 limits assumed): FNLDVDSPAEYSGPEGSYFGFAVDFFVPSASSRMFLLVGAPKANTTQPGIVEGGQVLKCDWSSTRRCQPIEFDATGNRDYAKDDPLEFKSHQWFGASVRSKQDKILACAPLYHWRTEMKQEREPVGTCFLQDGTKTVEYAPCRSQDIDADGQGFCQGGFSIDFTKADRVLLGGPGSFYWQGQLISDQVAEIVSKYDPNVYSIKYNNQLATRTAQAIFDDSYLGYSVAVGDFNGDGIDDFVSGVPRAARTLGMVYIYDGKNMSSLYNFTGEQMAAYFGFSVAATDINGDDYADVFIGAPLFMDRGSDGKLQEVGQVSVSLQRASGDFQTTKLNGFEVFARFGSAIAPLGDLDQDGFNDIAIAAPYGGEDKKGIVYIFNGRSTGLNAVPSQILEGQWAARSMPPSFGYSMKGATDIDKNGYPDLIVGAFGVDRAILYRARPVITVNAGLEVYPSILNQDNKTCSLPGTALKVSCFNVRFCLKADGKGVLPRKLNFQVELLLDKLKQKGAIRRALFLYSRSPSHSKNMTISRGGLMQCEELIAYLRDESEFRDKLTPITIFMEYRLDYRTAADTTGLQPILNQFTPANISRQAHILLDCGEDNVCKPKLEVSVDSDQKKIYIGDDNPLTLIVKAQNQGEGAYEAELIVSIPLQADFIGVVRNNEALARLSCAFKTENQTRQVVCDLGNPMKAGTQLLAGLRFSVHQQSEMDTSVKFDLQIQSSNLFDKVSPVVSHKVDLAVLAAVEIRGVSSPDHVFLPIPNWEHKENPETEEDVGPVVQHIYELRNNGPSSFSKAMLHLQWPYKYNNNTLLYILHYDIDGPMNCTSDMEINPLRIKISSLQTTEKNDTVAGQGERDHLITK
T1 sequence (P06756 891-1048 partner limits assumed): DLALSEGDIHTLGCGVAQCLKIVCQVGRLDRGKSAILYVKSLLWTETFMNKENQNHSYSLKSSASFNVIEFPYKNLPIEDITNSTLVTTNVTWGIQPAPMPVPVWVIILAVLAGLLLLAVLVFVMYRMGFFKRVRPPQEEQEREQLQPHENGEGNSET
T1 sequence (P05106 27-788): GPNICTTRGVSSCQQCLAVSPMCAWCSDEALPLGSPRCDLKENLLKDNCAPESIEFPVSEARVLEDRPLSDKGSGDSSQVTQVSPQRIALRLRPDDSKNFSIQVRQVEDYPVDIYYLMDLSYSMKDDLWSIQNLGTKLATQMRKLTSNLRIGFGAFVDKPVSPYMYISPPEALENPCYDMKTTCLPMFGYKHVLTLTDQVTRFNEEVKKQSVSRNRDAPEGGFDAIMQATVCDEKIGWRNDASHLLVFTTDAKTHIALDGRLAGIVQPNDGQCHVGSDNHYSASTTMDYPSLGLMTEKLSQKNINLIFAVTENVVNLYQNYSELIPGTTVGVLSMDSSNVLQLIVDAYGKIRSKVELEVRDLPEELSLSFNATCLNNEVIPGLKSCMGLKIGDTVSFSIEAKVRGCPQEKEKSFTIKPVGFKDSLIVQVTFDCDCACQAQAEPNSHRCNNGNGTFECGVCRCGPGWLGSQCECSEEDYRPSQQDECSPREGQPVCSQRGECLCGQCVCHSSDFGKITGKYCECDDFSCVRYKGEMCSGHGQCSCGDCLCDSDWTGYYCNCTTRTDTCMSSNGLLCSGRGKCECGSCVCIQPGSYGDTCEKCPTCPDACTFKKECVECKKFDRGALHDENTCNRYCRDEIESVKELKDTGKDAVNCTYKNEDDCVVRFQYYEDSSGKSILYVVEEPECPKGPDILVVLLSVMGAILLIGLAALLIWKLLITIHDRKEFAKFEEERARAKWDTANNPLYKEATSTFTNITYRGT

Turning to Echistatin [reference compound], the “log IC50” value in data set [1] is reported as −9.01 ± 0.033. Besides, the IC50 in data set [1] (read-out: IC50) amounted to 0.98 nM.
In turn, `N=C(N)NCCC[C@@H]1NC(=O)[C@H](CCCCNC(=O)CCP(=O)(O)CN2CCN(CP(=O)(O)CCC(=O)O)CCN(CP(=O)(O)CCC(=O)NCCCC[C@@H]3NC(=O)[C@@H](Cc4ccccc4)NC(=O)[C@H](CC(=O)O)NC(=O)CNC(=O)[C@H](CCCNC(=N)N)NC3=O)CC2)NC(=O)[C@@H](Cc2ccccc2)NC(=O)[C@H](CC(=O)O)NC(=O)CNC1=O` [Compound R2P9] had an IC50 in data set [1] (IC50 (nM)) of 370 nM.
In the case of 19F-galacto-RGD [reference compound], the IC50 in data set [1] (setting [2]) was determined as 319 nM. In data set [1] (logarithmic IC50 with logarithmic error, M21 cells, 125I-echistatin, 2 h room temperature), the “log IC50” value is on record as −6.45 ± 0.157.
`N=C(N)NCCC[C@@H]1NC(=O)[C@H](CCCCNC(=O)CCCCCNC(=O)CC[PH](=O)CN2CCN(CP(=O)(O)CCC(=O)NCCCCCC(=O)NCCCC[C@@H]3NC(=O)[C@H](Cc4ccccc4)NC(=O)[C@H](CC(=O)O)NC(=O)CNC(=O)[C@H](CCCNC(=N)N)NC3=O)CCN(CP(=O)(O)CCC(=O)NCCCCCC(=O)NCCCC[C@@H]3NC(=O)[C@H](Cc4ccccc4)NC(=O)[C@H](CC(=O)O)NC(=O)CNC(=O)[C@H](CCCNC(=N)N)NC3=O)CC2)NC(=O)[C@H](Cc2ccccc2)NC(=O)[C@H](CC(=O)O)NC(=O)CNC1=O` (some centres unmarked) [Compound R3HexP9] yielded an IC50 in data set [1] (IC50 (nM)) of 85 nM.
For the compound `N=C(N)NCCC[C@@H]1NC(=O)[C@H](CCCCNC(=O)CC[C@H](NC(=O)CCP(=O)(O)CN2CCN(CP(=O)(O)CCC(=O)N[C@@H](CCC(=O)NCCCC[C@@H]3NC(=O)[C@@H](Cc4ccccc4)NC(=O)[C@H](CC(=O)O)NC(=O)CNC(=O)[C@H](CCCNC(=N)N)NC3=O)C(=O)O)CCN(CP(=O)(O)CCC(=O)N[C@@H](CCC(=O)NCCCC[C@@H]3NC(=O)[C@@H](Cc4ccccc4)NC(=O)[C@H](CC(=O)O)NC(=O)CNC(=O)[C@H](CCCNC(=N)N)NC3=O)C(=O)O)CC2)C(=O)O)NC(=O)[C@@H](Cc2ccccc2)NC(=O)[C@H](CC(=O)O)NC(=O)CNC1=O` [Ga-R3GlutP9], the logP is -4.03 ± 0.12.
As to `N=C(N)NCCC[C@@H]1NC(=O)[C@H](CCCCNC(=O)CCOCCOCCOCCOCCOCCOCCOCCOCCNC(=O)CCP(=O)(O)CN2CCN(CP(=O)(O)CCC(=O)NCCOCCOCCOCCOCCOCCOCCOCCOCCC(=O)NCCCC[C@@H]3NC(=O)[C@@H](Cc4ccccc4)NC(=O)[C@H](CC(=O)O)NC(=O)CNC(=O)[C@H](CCCNC(=N)N)NC3=O)CCN(CP(=O)(O)CCC(=O)NCCOCCOCCOCCOCCOCCOCCOCCOCCC(=O)NCCCC[C@@H]3NC(=O)[C@@H](Cc4ccccc4)NC(=O)[C@H](CC(=O)O)NC(=O)CNC(=O)[C@H](CCCNC(=N)N)NC3=O)CC2)NC(=O)[C@@H](Cc2ccccc2)NC(=O)[C@H](CC(=O)O)NC(=O)CNC1=O` [Compound R3PEG8P9], in data set [1] (setting [2]), the IC50 was 50 nM.
In data set [1] (IC50 (nM)), `CCN=c1cc2oc3cc(NCC)c(C)cc3c(-c3ccccc3C(=O)NCCCCCCNC(=O)CCP(=O)(O)CN3CCN(CP(=O)(O)CCC(=O)NCCCCC4NC(=O)[C@@H](Cc5ccccc5)NC(=O)[C@H](CC(=O)O)NC(=O)CNC(=O)[C@H](CCCNC(=N)N)NC4=O)CCN(CP(=O)(O)CCC(=O)NCCCC[C@@H]4NC(=O)[C@@H](Cc5ccccc5)NC(=O)[C@H](CC(=O)O)NC(=O)CNC(=O)[C@H](CCCNC(=N)N)NC4=O)CC3)c-2cc1C` (some centres unmarked) [Compound R2RhoP9] yielded an IC50 of 92 nM.
`N=C(N)NCCC[C@@H]1NC(=O)[C@H](CCCCNC(=O)CCP(=O)(O)CN2CCN(CP(=O)(O)CCC(=O)O)CCN(CP(=O)(O)CCC(=O)NCCCC[C@@H]3NC(=O)[C@@H](Cc4ccccc4)NC(=O)[C@H](CC(=O)O)NC(=O)CNC(=O)[C@H](CCCNC(=N)N)NC3=O)CC2)NC(=O)[C@@H](Cc2ccccc2)NC(=O)[C@H](CC(=O)O)NC(=O)CNC1=O` [Ga-R2P9] showed a logP of -4.12 ± 0.06.
Turning to `N=C(N)NCCC[C@@H]1NC(=O)[C@H](CCCCNC(=O)CC[C@H](NC(=O)CCP(=O)(O)CN2CCN(CP(=O)(O)CCC(=O)N[C@@H](CCC(=O)NCCCC[C@@H]3NC(=O)[C@@H](Cc4ccccc4)NC(=O)[C@H](CC(=O)O)NC(=O)CNC(=O)[C@H](CCCNC(=N)N)NC3=O)C(=O)O)CCN(CP(=O)(O)CCC(=O)N[C@@H](CCC(=O)NCCCC[C@@H]3NC(=O)[C@@H](Cc4ccccc4)NC(=O)[C@H](CC(=O)O)NC(=O)CNC(=O)[C@H](CCCNC(=N)N)NC3=O)C(=O)O)CC2)C(=O)O)NC(=O)[C@@H](Cc2ccccc2)NC(=O)[C@H](CC(=O)O)NC(=O)CNC1=O` [Compound R3GlutP9], in data set [1] (IC50 (nM)), the IC50 was found to be 125 nM.
In the case of `N=C(N)NCCC[C@@H]1NC(=O)[C@H](CCCCNC(=O)CCP(=O)(O)CN2CCN(CP(=O)(O)CCC(=O)O)CCN(CP(=O)(O)CCC(=O)O)CC2)NC(=O)[C@@H](Cc2ccccc2)NC(=O)[C@H](CC(=O)O)NC(=O)CNC1=O` [Compound R1P9], the IC50 in data set [1] (IC50 (nM)) is 2890 nM; in data set [1] (log IC50) it was 2950 nM.
As for `N=C(N)NCCC[C@@H]1NC(=O)[C@H](CCCCNC(=O)CCOCCOCCOCCOCCNC(=O)CCP(=O)(O)CN2CCN(CP(=O)(O)CCC(=O)NCCOCCOCCOCCOCCC(=O)NCCCC[C@@H]3NC(=O)[C@@H](Cc4ccccc4)NC(=O)[C@H](CC(=O)O)NC(=O)CNC(=O)[C@H](CCCNC(=N)N)NC3=O)CCN(CP(=O)(O)CCC(=O)NCCOCCOCCOCCOCCC(=O)NCCCC[C@@H]3NC(=O)[C@@H](Cc4ccccc4)NC(=O)[C@H](CC(=O)O)NC(=O)CNC(=O)[C@H](CCCNC(=N)N)NC3=O)CC2)NC(=O)[C@@H](Cc2ccccc2)NC(=O)[C@H](CC(=O)O)NC(=O)CNC1=O` (single isomer, unassigned) [Ga-R3PEG4P9], the logP is -3.9 ± 0.1.
The same measure, in the same setting: in the case of `N=C(N)NCCC[C@@H]1NC(=O)[C@H](CCCCNC(=O)CCCCCNC(=O)CCP(=O)(O)CN2CCN(CP(=O)(O)CCC(=O)NCCCCCC(=O)NCCCC[C@@H]3NC(=O)[C@@H](Cc4ccccc4)NC(=O)[C@H](CC(=O)O)NC(=O)CNC(=O)[C@H](CCCNC(=N)N)NC3=O)CCN(CP(=O)(O)CCC(=O)NCCCCCC(=O)NCCCC[C@@H]3NC(=O)[C@@H](Cc4ccccc4)NC(=O)[C@H](CC(=O)O)NC(=O)CNC(=O)[C@H](CCCNC(=N)N)NC3=O)CC2)NC(=O)[C@@H](Cc2ccccc2)NC(=O)[C@H](CC(=O)O)NC(=O)CNC1=O` [Ga-R3HexP9] it was -3.99 ± 0.13; in that of `CCN=c1cc2oc3cc(NCC)c(C)cc3c(-c3ccccc3C(=O)NCCCCCCNC(=O)CCP(=O)(O)CN3CCN(CP(=O)(O)CCC(=O)NCCCC[C@@H]4NC(=O)[C@@H](Cc5ccccc5)NC(=O)[C@H](CC(=O)O)NC(=O)CNC(=O)[C@H](CCCNC(=N)N)NC4=O)CCN(CP(=O)(O)CCC(=O)NCCCC[C@@H]4NC(=O)[C@@H](Cc5ccccc5)NC(=O)[C@H](CC(=O)O)NC(=O)CNC(=O)[C@H](CCCNC(=N)N)NC4=O)CC3)c-2cc1C` [Ga-R2RhoP9], -1.27 ± 0.04; in that of `N=C(N)NCCC[C@@H]1NC(=O)[C@H](CCCCNC(=O)CCP(=O)(O)CN2CCN(CP(=O)(O)CCC(=O)O)CCN(CP(=O)(O)CCC(=O)O)CC2)NC(=O)[C@@H](Cc2ccccc2)NC(=O)[C@H](CC(=O)O)NC(=O)CNC1=O` [Ga-R1P9], -3.91 ± 0.11.

Source of the values: patent US9260483B2, “Triazacyclononane-based phosphinate ligand and its use for molecular imaging” (TECHNISCHE UNIVERSITÄT MÜNCHEN, priority 2011, dated 2016).
